Patent US12522582B2 (Gilead Sciences, Inc., priority 2022, dated 2026)
Where two headings read alike, the source gives them in different places.

Legend:
[1] = system: HSV-2 virus (MS strain); assay: HSV qPCR Assay (HSV replication in ARPE-19 cells); settings: Human alphaherpesvirus 2, ARPE-19, read-out: EC50-HSV2-qPCR
Method: HSV replication in the presence or absence of compounds was measured by qPCR according to the following procedure: DMSO stock compound solutions (1-10 mM) were serially diluted (2.5-fold) in DMSO in clear round bottom 96-well plates. Compounds were then diluted 1:20 in assay medium (DMEM/F12 Glutamax+2% Fetal bovine serum+1% Penicillin Streptomycin) and 10 μL of these dilutions were added to 96-well tissue culture plates for final starting concentrations between 0.5 and 5 μM.
Cells were resuspended in assay medium, counted, and cell density was adjusted to 2.8E+05 cells/ml with assay medium. […] 90 μL of the infection suspension (25,000 cells) were added to assay plates in which compounds were already added. After an overnight incubation at 37° C., cell culture medium was removed, and cell lysis was performed using the prepGEM Universal kit (MicroGEM cat #PUN1000). Specifically, 100 μL of prepGEM master mix (94.75 μL Water, 5 μL buffer, 0.25 μL enzyme stock) were added to each well and plates were incubated at room temperature for 15 minutes, with the 5 last minutes on a plate shaker. The cell lysates were then transferred to a 96-well PCR compatible microplate (Applied Biosystems, Cat #N8010560). Plates were sealed with a heat resistant plastic sealer and heated on a thermal cycler using the following conditions: 75° C. for 10 min, 95° C. for 5 minutes. Finally, plates were cooled down to room temperature with light shaking before proceeding to the qPCR setup.
Plates were sealed with a clear sealer, spun down, and qPCR reactions were performed in an Applied Biosystems Quantstudio 7 Flex instrument using the following conditions: 95° C. for 2 minutes, then 40 cycles alternating between 95° C. for 5 seconds and 60° C. for 30 seconds.
Analysis was performed using dCT method where dCT=CT (test)−CT (DMSO). Fold change was calculated using the 2^^dCT equation. This fold change was then converted to percentage relative to DMSO control (no drug). EC50s were determined by non-linear regression analysis using GraphPad Prism software.

[2] = molecular target: hCAII (Homo sapiens (Human), UniProt P00918); assay: Carbonic Anhydrase (Esterase) Biochemical Assay, hCAII
Method: (§1) 10-dose, 3-fold serial dilutions of compounds were prepared at starting concentrations of 10 mM in 100% DMSO. […] Final starting concentration in the assay was 50 μM. DMSO (no compound) and acetazolamide were included on each microplate as negative and positive controls, respectively.
(§2) Following a preincubation at room temperature for 15 minutes, 20 μl of a 4 mM solution of 4NPA substrate (Sigma cat #N8130) in assay buffer were added to start the reaction.

[3] = system: HSV-2 virus (MS strain); assay: HSV-2 Cellomics Assay (immunofluorescence of HSV protein gD in infected ARPE-19 cells); settings: Human alphaherpesvirus 2, ARPE-19, 16 h
Method: Compounds were tested for their ability to inhibit HSV-2 replication by monitoring the expression of the HSV protein gD using a high-throughput immunofluorescence-based assay. 10-dose, 3-fold serial dilutions of compounds were prepared at starting concentrations of 0.2 or 2 mM in 100% DMSO. […] The final starting concentration in the assay was either 1 or 10 μM. DMSO (no compound) and pritelivir were included on each microplate as negative and positive controls, respectively.
Prior to confluence, cells were transferred to a centrifuge tube and spun for 5 minutes at 1000 rpm. Cells were resuspended in assay medium (DMEM/F-12 Glutamax, 2% FBS, 1% Penicillin-Streptomycin) and counted. Cell density was adjusted to 150,000 cells/ml and infected with HSV-2 virus (MS strain, ATCC cat #VR-540) at a MOI of 0.06 in a 50 ml conical tube for 1 hour under constant rocking. Cells were then spun for 5 minutes at 1000 rpm and the media replaced with assay medium containing either 2% FBS or 10% human serum (EMD Millipore cat #S1-100 ML). 50 μl of the infection suspension were added into microplate wells that were pre-spotted with compounds (7,500 cells per well). Plates were incubated for 16 hours at 37° C.
After a 30-minute incubation at room temperature, plates were washed 4 times with 100 μl/well of PBS using a Biotek plate washer. […] Plates were washed 4 times again and 50 μl of DPBS were added to all wells prior to sealing the plates with a black adhesive seal. Fluorescence was measured on a Cellomics plate reader.
Data analysis was carried out using the Thermo Scientific HCS Studio software. Briefly, cells were identified using the DAPI nuclear stain and thresholds were set to filter cells out based on shape and size. A second threshold based on green fluorescence intensity (detection of HSV-2 gD) was set to identify HSV-2 infected cells. Data was reported as the average fluorescence intensity of HSV-2 infected cells.

[4] = system: human cryopreserved hepatocytes; assay: Stability Assay in Cryopreserved Hepatocytes (human); format: in vitro ADME; settings: 1 μM, calculated from half-life using the well-stirred model
Method: Test compound was incubated at 1 μM with either rat or human cryopreserved hepatocytes (BioIVT, Westbury, NY) up to 6 hours at 37° C. in a 24-well plate format (1×10^6 cells/mL per well). At specified time points, samples were transferred to a 96-well plate and quenched with 2 volumes of a solution containing 90% acetonitrile 10% methanol 0.1% formic acid and internal standard. Sample plate was centrifuged at 3200 rpm for 15 min and supernatants transferred to a new plate containing half volume of water. The resulting solution was analyzed by LC-MS/MS. Data (analyte to internal standard peak area ratio) was plotted on a semi-log scale and fitted using an exponential fit. Assuming first order kinetics, the half-life (t1/2) and rate of metabolism were determined. Predicted hepatic clearance was calculated from the half-life using the well-stirred model.

[5] = MT-4 CC50 Assay (CellTiter Glo); format: cell-based; settings: human, MT-4 cells, luminescence, read-out: CC50-MT4
Method: Compounds were tested in 384-well plates: 18 compounds in duplex. Compounds were diluted in 7 points, 3-fold with DMSO by Bravo. Assay plate, which contains 20 uL medium with compounds, was seeded 2000 MT-4 cells in 20 uL/well by Multi-drop to start the assay. The plate was incubated at 37° C. for 5 days. On 6th day, the CellTiter Glo 40 uL was added in each well. Luminescence was read by Victor II.

[6] = molecular target: hCAI (Homo sapiens (Human), UniProt P00915); assay: Carbonic Anhydrase (Esterase) Biochemical Assay, hCAI
Method: as §1, §2

[7] = read-out: IC50-hCAII, 4-nitrophenyl acetate hydrolysis, 60 min
[8] = read-out: EC50-HSV2-10% Human Serum
[9] = read-out: IC50-hCAI, 4-nitrophenyl acetate hydrolysis, 60 min

Sequence of hCAI (P00915 whole entry): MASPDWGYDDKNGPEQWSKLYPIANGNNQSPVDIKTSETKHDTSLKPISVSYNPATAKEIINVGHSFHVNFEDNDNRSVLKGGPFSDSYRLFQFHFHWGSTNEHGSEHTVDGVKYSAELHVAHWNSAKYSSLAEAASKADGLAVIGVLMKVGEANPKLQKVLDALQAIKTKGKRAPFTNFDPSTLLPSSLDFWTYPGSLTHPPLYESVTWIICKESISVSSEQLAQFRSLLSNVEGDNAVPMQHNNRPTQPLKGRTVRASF

SMILES | EC50 [1] | IC50 [2, 7] | EC50 [3, 8] | EC50 ([3]; read-out: EC50-HSV2-FBS) | Predicted human hepatic clearance [4] | CC50 at 5 days [5] | IC50 [2] | IC50 [6] | IC50 [6, 9]
NS(=O)(=O)c1cc2c(cc1Cl)CCN2C(=O)C1Cc2ccc(-c3ccccn3)cc2C1 (stereo not drawn) [Example 5] | 10.9 nM | ≥ 25000 nM | ≥ 25000 nM | 35 nM | – | – | – | – | –
C[C@@H]1Cc2ccc(S(N)(=O)=O)cc2N1C(=O)[C@@H]1Cc2ccc(-c3ccccn3)cc2C1 [Example 15] | 4.9 nM | – | 276 nM | 28 nM | 0.933 mL/min/kg | ≥ 50000 nM | – | – | –
C[C@@H]1Cc2cc(F)c(S(N)(=O)=O)cc2N1C(=O)[C@@H]1Cc2ccc(-c3ccccn3)cc2C1 [Example 35] | 1.1 nM | – | 57.5 nM | 7 nM | 0.917 mL/min/kg | 24000 nM | – | – | –
C[C@@H]1Cc2cc(F)c(S(N)(=O)=O)cc2N1C(=O)[C@H]1Cc2cc(-c3ccccn3)ccc2O1 [Example 44] | 1 nM | – | 326 nM | 14 nM | 0.83 mL/min/kg | ≥ 10000 nM | – | – | –
NS(=O)(=O)c1cc2c(cc1F)CCN2C(=O)[C@@H]1Cc2ccc(-c3ccccn3)cc2O1 [Example 65, (S)-5-fluoro-1-(6-(pyridin-2-yl)-2,3-dihydrobenzofuran-2-carbonyl)indoline-6-sulfonamide] | 1.4 nM | – | 147 nM | 16 nM | 0.83 mL/min/kg | ≥ 10000 nM | – | – | –
NS(=O)(=O)c1ccc2c(c1)N(C(=O)C1Cc3ccc(-c4nccnc4F)cc3C1)CC2 (stereo not drawn) [Example 73] | 17.5 nM | ≥ 25000 nM | 6040 nM | 129 nM | – | – | – | – | –
NS(=O)(=O)c1ccc2c(c1)N(C(=O)C1Cc3ccc(-c4cnccn4)cc3C1)CC2 (stereo not drawn) [Example 74] | 8.3 nM | ≥ 25000 nM | 11800 nM | 59 nM | – | – | – | – | –
NS(=O)(=O)c1ccc2c(c1)N(C(=O)C1Cc3ccc(-c4cccc(F)n4)cc3C1)CC2 (stereo not drawn) [Example 75] | 14.3 nM | ≥ 25000 nM | – | 32 nM | – | – | – | – | –
NS(=O)(=O)c1ccc2c(c1)N(C(=O)C1Cc3ccc(-c4ncccc4F)cc3C1)CC2 (stereo not drawn) [Example 76] | 22 nM | ≥ 25000 nM | – | 107 nM | – | 2500 nM | – | – | –
NS(=O)(=O)c1ccc2c(c1)N(C(=O)[C@@H]1Cc3ccc(-c4ccccn4)cc3C1)CC2 [Example 81, (R)-1-(5-(pyridin-2-yl)-2,3-dihydro-1H-indene-2-carbonyl)indoline-6-sulfonamide] | 1.9 nM | ≥ 25000 nM | ≥ 25000 nM | 20 nM | 2.33 mL/min/kg | ≥ 50000 nM | – | – | –
NS(=O)(=O)c1ccc2c(c1)N(C(=O)[C@@H]1Cc3ccc(-c4ncccc4F)cc3C1)CC2 [Example 89, (R)-1-(5-(3-fluoropyridin-2-yl)-2,3-dihydro-1H-indene-2-carbonyl)indoline-6-sulfonamide] | – | – | 1960 nM | 23 nM | 0.83 mL/min/kg | 308 nM | – | – | –
C[C@H]1c2ccc(-c3ccccn3)cc2C[C@@H]1C(=O)N1CCc2ccc(S(N)(=O)=O)cc21 [Example 94, 1-((1R,2S)-1-methyl-5-(pyridin-2-yl)-2,3-dihydro-1H-indene-2-carbonyl)indoline-6-sulfonamide] | 3.9 nM | ≥ 50000 nM | 195 nM | 49 nM | – | ≥ 50000 nM | – | – | –
C[C@H]1c2ccc(-c3ccccn3)cc2C[C@@H]1C(=O)N1CCc2cc(F)c(S(N)(=O)=O)cc21 [Example 97, 5-fluoro-1-((1R,2S)-1-methyl-5-(pyridin-2-yl)-2,3-dihydro-1H-indene-2-carbonyl)indoline-6-sulfonamide] | 1.3 nM | – | 56 nM | 14 nM | – | ≥ 50000 nM | ≥ 50000 nM | ≥ 50000 nM | –
NS(=O)(=O)c1cc2c(cc1F)C[C@@H](CF)N2C(=O)[C@@H]1Cc2ccc(-c3ccccn3)cc2C1 [Example 125, (S)-5-fluoro-2-(fluoromethyl)-1-((R)-5-(pyridin-2-yl)-2,3-dihydro-1H-indene-2-carbonyl)indoline-6-sulfonamide] | 0.56 nM | – | 70.2 nM | 11.1 nM | 1.03 mL/min/kg | – | – | – | –
NS(=O)(=O)c1cc2c(cc1F)C[C@H](CF)N2C(=O)[C@@H]1Cc2ccc(-c3ccccn3)cc2C1 [Example 126, (R)-5-fluoro-2-(fluoromethyl)-1-((R)-5-(pyridin-2-yl)-2,3-dihydro-1H-indene-2-carbonyl)indoline-6-sulfonamide] | 56.7 nM | – | ≥ 10000 nM | ≥ 1000 nM | 2.67 mL/min/kg | – | – | – | –
NS(=O)(=O)c1cc2c(cc1F)C[C@H](C(F)F)N2C(=O)[C@@H]1Cc2ccc(-c3ccccn3)cc2C1 [Example 127, (R)-2-(difluoromethyl)-5-fluoro-1-((R)-5-(pyridin-2-yl)-2,3-dihydro-1H-indene-2-carbonyl)indoline-6-sulfonamide] | 58.3 nM | 2460 nM | 5440 nM | 553 nM | 5.67 mL/min/kg | – | – | – | 4190 nM
NS(=O)(=O)c1cc2c(cc1F)C[C@@H](C(F)F)N2C(=O)[C@@H]1Cc2ccc(-c3ccccn3)cc2C1 [Example 128, (S)-2-(difluoromethyl)-5-fluoro-1-((R)-5-(pyridin-2-yl)-2,3-dihydro-1H-indene-2-carbonyl)indoline-6-sulfonamide] | 1.4 nM | 7420 nM | 62.9 nM | 8.3 nM | 3.5 mL/min/kg | – | – | – | ≥ 50000 nM
C[C@H]1c2ccc(-c3ccccn3)cc2C[C@@H]1C(=O)N1C[C@@H](C(F)(F)F)c2cc(F)c(S(N)(=O)=O)cc21 [Example 138, (S)-5-fluoro-1-((1R,2S)-1-methyl-5-(pyridin-2-yl)-2,3-dihydro-1H-indene-2-carbonyl)-3-(trifluoromethyl)indoline-6-sulfonamide] | 2 nM | – | 184 nM | 23.4 nM | 1 mL/min/kg | – | – | – | –
